What is called EC50 is the midpoint of the concentration-response curve.

SMILES strings stand for the structures. Structures can show the parent of a compound that is named as a salt.

T1 sequence (Q14416 19-872): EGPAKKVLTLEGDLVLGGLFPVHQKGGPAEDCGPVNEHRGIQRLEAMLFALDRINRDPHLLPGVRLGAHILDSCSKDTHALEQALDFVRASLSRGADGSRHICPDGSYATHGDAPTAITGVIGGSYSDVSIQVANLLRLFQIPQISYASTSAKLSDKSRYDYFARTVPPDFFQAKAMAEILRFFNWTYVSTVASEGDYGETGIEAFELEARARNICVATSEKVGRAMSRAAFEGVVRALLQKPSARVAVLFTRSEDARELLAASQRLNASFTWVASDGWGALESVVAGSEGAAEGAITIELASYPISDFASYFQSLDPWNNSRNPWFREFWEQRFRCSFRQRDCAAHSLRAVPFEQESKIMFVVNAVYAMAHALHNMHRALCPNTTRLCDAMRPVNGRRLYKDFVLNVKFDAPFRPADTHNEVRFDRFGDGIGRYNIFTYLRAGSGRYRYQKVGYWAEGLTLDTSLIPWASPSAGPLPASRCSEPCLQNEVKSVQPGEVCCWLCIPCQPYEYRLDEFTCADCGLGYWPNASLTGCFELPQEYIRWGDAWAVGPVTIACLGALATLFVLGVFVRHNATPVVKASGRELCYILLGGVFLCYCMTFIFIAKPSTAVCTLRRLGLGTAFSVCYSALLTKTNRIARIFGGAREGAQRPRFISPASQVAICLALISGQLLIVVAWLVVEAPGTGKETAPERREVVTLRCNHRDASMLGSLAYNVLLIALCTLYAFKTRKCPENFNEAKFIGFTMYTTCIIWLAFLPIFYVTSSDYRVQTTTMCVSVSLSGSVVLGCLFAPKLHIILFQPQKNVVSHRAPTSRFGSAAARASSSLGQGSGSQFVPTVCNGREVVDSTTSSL

One experiment addresses T1, human mGluR2 (Homo sapiens, UniProt Q14416).
T1 construct: expressed in transfected cells; host or cells: HEK293 clonal line
Description: mGluR2 cAMP assay. The format is cell-based. The following applies: EC50 (nM), activity in mGluR2 cAMP assay, clonally expressed human mGluR2 in HEK293; 1 μM forskolin, 1 μM LY-341495, 30 min; CISBIO cAMP kit. As for the experimental part: On the day of the assay, media was removed, cells washed with PBS, cells harvested and pelleted by centrifugation. Cell pellets were resuspended in stimulation buffer without forskolin and counted. […] A standard curve was created using a top concentration of cAMP of 1 μM in the stimulation buffer, 1:3 dilutions over 14 points in the absence of cells. […] In house software converted the fluorescence value ratios to units of cAMP concentration, which is then used to calculate % inhibition for each test compound. MGluR2 cAMP Assay Materials and Methods. […] Buffer without forskolin was used as a negative control. Solutions of D2 and cryptate detection reagents from the CISBIO dynamic cAMP kit (62AM4PEJ) were diluted 1:40 in lysis buffer. Lysis buffer consisted of 50 mM Phosphate Buffer pH 7.0, 800 mM Potassium Fluoride, 0.2% BSA, and 1.0% Triton. Assay reaction was terminated by addition of detection reagents in lysis buffer. One hour later, plates were read on a PE Viewlux. Data was extracted, and concentration response curves generated by fitting the data to a standard 4 parameter logistic equation from which EC50 values were determined.
Background: Changes in cAMP serve as a functional read-out for many G protein-coupled receptors.
For `Fc1ccc([C@H]2C[C@@H]2COc2ccn3c(CC4CC4)nnc3c2C(F)(F)F)cc1` (racemic) [Example 77, (±)-3-(Cyclopropylmethyl)-7-(((1S,2S)-2-(4-fluorophenyl)cyclopropyl)methoxy)-8-(trifluoromethyl)-[1,2,4]triazolo[4,3-a]pyridine], the 50% effective concentration (EC50) was 1.7 nM.

Still in this experiment, the particulars now being: clonally expressed human mGluR2 in HEK293; 1 μM forskolin, 1 μM LY-341495, 30 min; CISBIO cAMP kit; read-out: EC50 (nM), activity in mGluR2 cAMP assay.
Take `CC(COc1ccn2c(CC3CC3)nnc2c1C(F)(F)F)c1ccc(F)cc1` (racemic) [Example 4, 3-(Cyclopropylmethyl)-7-(2-(4-fluorophenyl)propoxy)-8-(trifluoromethyl)-[1,2,4]triazolo[4,3-a]pyridine, TFA salt]: the 50% effective concentration (EC50) amounted to 10 nM.

Turning to `CC(COc1ccn2c(CC3CC3)nnc2c1C(F)(F)F)c1c(F)cccc1Cl` (racemic) [Example 5, 7-(2-(2-Chloro-6-fluorophenyl)propoxy)-3-(cyclopropylmethyl)-8-(trifluoromethyl)-[1,2,4]triazolo[4,3-a]pyridine], the EC50 is 1 nM.

`CC(C#N)(COc1ccn2c(CC3CC3)nnc2c1C(F)(F)F)c1ccc(F)cc1` (racemic) [Example 12, 3-(3-(Cyclopropylmethyl)-8-(trifluoromethyl)-[1,2,4]triazolo[4,3-a]pyridin-7-yloxy)-2-(4-fluorophenyl)-2-methylpropanenitrile, TFA salt]: the EC50 came to 130 nM.

Regarding `COC(C)(COc1ccn2c(CC3CC3)nnc2c1C(F)(F)F)c1ccc(F)cc1` (racemic) [Example 21, 3-(Cyclopropylmethyl)-7-(2-(4-fluorophenyl)-2-methoxypropoxy)-8-(trifluoromethyl)-[1,2,4]triazolo[4,3-a]pyridine], the concentration giving a half-maximal response (EC50) worked out at 31 nM.

Take `FC(F)(F)c1c(OC[C@H]2C[C@@H]2c2ccc(Cl)cc2)ccn2c(CC3CC3)nnc12` (racemic) [Example 31, (±)-7-(((1S,2S)-2-(4-chlorophenyl)cyclopropyl)methoxy)-3-(cyclopropylmethyl)-8-(trifluoromethyl)-[1,2,4]triazolo[4,3-a]pyridine]: the half-maximal effective concentration (EC50) is 1.3 nM.

Turning to `COc1cccc(F)c1[C@H]1C[C@@H]1COc1ccn2c(CC3CC3)nnc2c1C(F)(F)F` (racemic) [Example 32, (±)-3-(Cyclopropylmethyl)-7-(((1S,2S)-2-(2-fluoro-6-methoxyphenyl)cyclopropyl)methoxy)-8-(trifluoromethyl)-[1,2,4]triazolo[4,3-a]pyridine], the EC50 amounted to 0.3 nM.

On to `COc1ccccc1[C@H]1C[C@@H]1COc1ccn2c(CC3CC3)nnc2c1C(F)(F)F` (racemic) [Example 37, (±)-3-(Cyclopropylmethyl)-7-(((1S,2S)-2-(2-methoxyphenyl)cyclopropyl)methoxy)-8-(trifluoromethyl)-[1,2,4]triazolo[4,3-a]pyridine], for which the concentration giving a half-maximal response (EC50) amounted to 0.2 nM.

Consider `FC(F)(F)Oc1ccccc1[C@H]1C[C@@H]1COc1ccn2c(CC3CC3)nnc2c1C(F)(F)F` (racemic) [Example 38, (±)-3-(Cyclopropylmethyl)-7-(((1S,2S)-2-(2-(trifluoromethoxy)phenyl)cyclopropyl)methoxy)-8-(trifluoromethyl)-[1,2,4]triazolo[4,3-a]pyridine], for which the EC50 was 1.4 nM.

As for `Fc1ccccc1[C@H]1C[C@@H]1COc1ccn2c(CC3CC3)nnc2c1C(F)(F)F` (racemic) [Example 43, (±)-3-(Cyclopropylmethyl)-7-(((1S,2S)-2-(2-fluorophenyl)cyclopropyl)methoxy)-8-(trifluoromethyl)-[1,2,4]triazolo[4,3-a]pyridine], the concentration for a half-maximal effect (EC50) was 1.4 nM.

In the case of `Fc1ccc(F)c([C@H]2C[C@@H]2COc2ccn3c(CC4CC4)nnc3c2C(F)(F)F)c1` (racemic) [Example 44, (±)-3-(Cyclopropylmethyl)-7-(((1S,2S)-2-(2,5-difluorophenyl)cyclopropyl)methoxy)-8-(trifluoromethyl)-[1,2,4]triazolo[4,3-a]pyridine], the 50% effective concentration (EC50) was 1.9 nM.

Take `COc1ccc([C@H]2C[C@@H]2COc2ccn3c(CC4CC4)nnc3c2C(F)(F)F)cc1` (racemic) [Example 45, (±)-3-(Cyclopropylmethyl)-7-(((1S,2S)-2-(4-methoxyphenyl)cyclopropyl)methoxy)-8-(trifluoromethyl)-[1,2,4]triazolo[4,3-a]pyridine]: the concentration giving a half-maximal response (EC50) was 1.3 nM.

For `COc1c(F)ccc(F)c1[C@H]1C[C@@H]1COc1ccn2c(CC3CC3)nnc2c1C(F)(F)F` (racemic) [Example 47, (±)-3-(Cyclopropylmethyl)-7-(((1S,2S)-2-(3,6-difluoro-2-methoxyphenyl)cyclopropyl)methoxy)-8-(trifluoromethyl)-[1,2,4]triazolo[4,3-a]pyridine], the EC50 came out at 0.8 nM.

For the compound `Fc1cccc(Cl)c1[C@H]1C[C@@H]1COc1ccn2c(CC3CC3)nnc2c1C(F)(F)F` (racemic) [Example 48, (±)-7-(((1S,2S)-2-(2-chloro-6-fluorophenyl)cyclopropyl)methoxy)-3-(cyclopropylmethyl)-8-(trifluoromethyl)-[1,2,4]triazolo[4,3-a]pyridine], the EC50 came out at 0.5 nM.

As for `COc1cc(F)ccc1[C@H]1C[C@@H]1COc1ccn2c(CC3CC3)nnc2c1C(F)(F)F` (racemic) [Example 49, (±)-3-(Cyclopropylmethyl)-7-(((1S,2S)-2-(4-fluoro-2-methoxyphenyl)cyclopropyl)methoxy)-8-(trifluoromethyl)-[1,2,4]triazolo[4,3-a]pyridine], the concentration giving a half-maximal response (EC50) is 0.4 nM.

Regarding `FC(COc1ccn2c(CC3CC3)nnc2c1C(F)(F)F)c1ccccc1` (racemic) [Example 84, 3-(Cyclopropylmethyl)-7-(2-fluoro-2-phenylethoxy)-8-(trifluoromethyl)-[1,2,4]triazolo[4,3-a]pyridine], the concentration for a half-maximal effect (EC50) was found to be 5.8 nM.

On to `FC(F)(F)c1c(OCc2ccccc2)ccn2c(CC3CC3)nnc12` (racemic) [Example 85, 7-(Benzyloxy)-3-(cyclopropylmethyl)-8-(trifluoromethyl)-[1,2,4]triazolo[4,3-a]pyridine], for which the EC50 is 25 nM.

On to `CO[C@]1(c2ccc(F)cc2)CC[C@H](Oc2ccn3c(C4CC4(F)F)nnc3c2C(F)(F)F)CC1` (mixture of isomers) [Example 86, (±)-3-(2,2-Difluorocyclopropyl)-7-((1s,4s)-4-(4-fluorophenyl)-4-methoxycyclohexyloxy)-8-(trifluoromethyl)-[1,2,4]triazolo[4,3-a]pyridine], for which the EC50 was 6.9 nM.

Take `CO[C@]1(c2ccc(F)cc2)CC[C@H](Oc2ccn3c(C4CC4(C)C)nnc3c2C(F)(F)F)CC1` (mixture of isomers) [Example 94, 3-(2,2-Dimethylcyclopropyl)-7-((1s,4s)-4-(4-fluorophenyl)-4-methoxycyclohexyloxy)-8-(trifluoromethyl)-[1,2,4]triazolo[4,3-a]pyridine]: the half-maximal effective concentration (EC50) came to 12 nM.

For the compound `Fc1ccc([C@H]2C[C@H](Oc3ccn4c(C5CC5(F)F)nnc4c3C(F)(F)F)C2)cc1` (mixture of isomers) [Example 98, (±)-3-(2,2-Difluorocyclopropyl)-7-((1r,3r)-3-(4-fluorophenyl)cyclobutoxy)-8-(trifluoromethyl)-[1,2,4]triazolo[4,3-a]pyridine], the EC50 amounted to 5.1 nM.

`CO[C@]1(c2ccc(F)cc2)CC[C@H](Oc2ccn3c([C@@H]4C[C@H]4F)nnc3c2C(F)(F)F)CC1` (relative stereo) [Example 89, (±)-rel-3-((1S,2R)-2-Fluorocyclopropyl)-7-((1s,4s)-4-(4-fluorophenyl)-4-methoxycyclohexyloxy)-8-(trifluoromethyl)-[1,2,4]triazolo[4,3-a]pyridine]: the EC50 came out at 41 nM.

(Values after patent US9738642B2, “Triazolopyridine ether derivatives and their use in neurological and pyschiatric disorders” (BRISTOL-MYERS SQUIBB COMPANY, priority 2013, dated 2017).)
